In patent publication US20050033050A1, “Phthalazinones and the use thereof in order to combat undesirable microorganisms” (priority 2001, published 2005):
Where two headings read alike, the source gives them in different places.

Legend:
[1] = logP by HPLC (EEC directive 79/831 Annex V.A8, gradient method); format: physicochemical; conditions: for logP*: compounds of formula (IV), Table 2; for log P*: Table 1
[2] = tested on: Erysiphe graminis fsp. tritici; test: Erysiphe test (wheat)/protective; format: in vivo; conditions: protective, application rate 500 g/ha, evaluation 7 days after inoculation, 100% = no infection
Protocol: To produce a suitable preparation of active compound, I part by weight of active compound is mixed with the stated amounts of solvent and emulsifier, and the concentrate is diluted with water to the desired concentration.
To test for protective activity, young plants are sprayed with the preparation of active compound at the stated application rate.
After the spray coating has dried on, the plants are dusted with spores of Erysiphe graminis fsp. tritici.
(§1) The plants are placed in a greenhouse at a temperature of about 20° C. and a relative atmospheric humidity of about 80% to promote the development of mildew pustules.
(§2) Evaluation is carried out 7 days after the inoculation. 0% means an efficacy which corresponds to that of the control, whereas an efficacy of 100% means that no infection is observed.

[3] = tested on: Erysiphe graminis f.sp. hordei; test: Erysiphe test (cucumber)/protective; format: in vivo; conditions: protective, application rate 500 g/ha, evaluation 7 days after inoculation; 100% = no infection
Protocol: To produce a suitable preparation of active compound, 1 part by weight of active compound is mixed with the stated amounts of solvent and emulsifier, and the concentrate is diluted with water to the desired concentration. To test for protective activity, young plants are sprayed with the preparation of active
compound at the stated application rate.
After the spray coating has dried on, the plants are dusted with spores of Erysiphe graminis f.sp. hordei.
as §1, §2

[4] = gradient method, acetonitrile/0.1% aqueous phosphoric acid
[5] = gradient method, acetonitrile/0.1% aqueous phosphoric acid, compounds of formula (I)
[6] = gradient method, acetonitrile/0.1% aqueous phosphoric acid, compounds of formula (I), Table 1, read-out: log P*
[7] = preparation example, read-out: HPLC: logP

In the case of `CC(C)COc1n[nH]c(=O)c2cc(Cl)c(Cl)cc12` [(IV-6)], the “logP*” value [1, 4] is reported as 3.64.
For `CCC(C)Oc1nn(C(C)CC)c(=O)c2cc(Br)ccc12` (stereo not shown) [Example 9], the “log P*” value [1, 5] was 5.52.
With `CCCOc1n[nH]c(=O)c2ccc(Br)cc12` [(IV-3)] the “logP*” value [1, 4] was 2.71.
For `CCCOc1n[nH]c(=O)c2cc(Br)ccc12` [(IV-2)], the “logP*” value [1, 4] was 2.66.
In the case of `CCCOc1nn(CCC)c(=O)c2cc(Cl)c(Cl)cc12` [Example 10], the “log P*” value [1, 5] is reported as 5.51 and the efficacy [2] is reported as 100%.
For `CC(C)COc1nn(CC(C)C)c(=O)c2cc(Cl)c(Cl)cc12` [Example 13], the “log P*” value [1, 5] was 6.46.
In the case of `CCCCOc1nn(CCCC)c(=O)c2cc(Cl)c(Cl)cc12` [Example 11], the efficacy [3] is reported as 100%, the “log P*” value [1, 5] is reported as 6.71 and the efficacy [2] is reported as 100%.
With `CCCOc1cc2c(=O)n(CCC)nc(OCCC)c2cc1F` [Example 16] the “log P*” value [1, 5] was 5.26.
With `CCC(C)Oc1n[nH]c(=O)c2cc(Cl)c(Cl)cc12` (stereo not shown) [(IV-5)] the “logP*” value [1, 4] was 3.62.
`CCCOc1nn(CCC(C)C)c(=O)c2ccc(Br)cc12` [Example 2, 6-bromo-2-isopentyl-4-propoxy-1 (2H)-phthalazinone] gave a chromatographic logP [1, 6] of 5.91 and a chromatographic logP [1, 7] of 5.91.
In the case of `CCCOc1nn(CCC)c(=O)c2ccc(Br)cc12` [Example 4], the “log P*” value [1, 5] is reported as 4.8 and the efficacy [2] is reported as 100%.
Molecule `CCCOc1nn(CCC)c(=O)c2cc(Br)ccc12` [Example 1, 7-bromo-4-propoxy-2-propyl-1(2H)-phthalazinone] has a chromatographic logP [1, 6] of 4.76 and a chromatographic logP [1, 7] of 4.76.
`CCC(C)Oc1n[nH]c(=O)c2cc(Br)ccc12` (stereo not shown) [Example (IV-1), 7-bromo-4-sec-butoxy-1 (2H)-phthalazinone] gave a chromatographic logP [1, 7] of 3.01.
With `CCCOc1cc2c(OCCC)nn(CCC)c(=O)c2cc1F` [Example 15] the “log P*” value [1, 5] was 4.82.
With `CCC(C)Oc1n[nH]c(=O)c2ccc(Br)cc12` (stereo not shown) [(IV-4)] the “logP*” value [1, 4] was 3.12.
For `CCC(C)Oc1nn(C(C)CC)c(=O)c2cc(Cl)c(Cl)cc12` (stereo not shown) [Example 12], the “log P*” value [1, 5] was 3.62.
